Assays:
[1] = physchem; conditions: oil or lipid, thermodynamic from solid
[2] = Solubility of fatty acids in squalene; conditions: for solubility: oil or lipid, thermodynamic from solid
[3] = 4 °C, solubility in squalene, 4° C. (overnight), solution at the fatty acid's top concentration left at 4° C. overnight
[4] = 60 °C, solubility in squalene at 5 mg/mL, mixed with squalene at 60° C.
[5] = 60 °C, solubility in squalene at 10 mg/mL, mixed with squalene at 60° C.
[6] = 60 °C, solubility in squalene at 20 mg/mL, mixed with squalene at 60° C.
[7] = 60 °C, solubility in squalene at 40 mg/mL, mixed with squalene at 60° C.

| SMILES | solubility [1, 3] | solubility [1, 4] | solubility [1, 5] | solubility [1, 6] | solubility [1, 7] | also measured |
| --- | --- | --- | --- | --- | --- | --- |
| CCCCCCCCCCCCCCCCCCCCCCC(=O)O [Tricosanoic Acid] | < 40 mg/mL | < 5 mg/mL | < 10 mg/mL | < 20 mg/mL | < 40 mg/mL | – |
| CCCCCCCC/C=C\CCCCCCCCCCCCCC(=O)O [Nervonic Acid (24:1), Nervonic Acid] | < 40 mg/mL | – | – | – | > 40 mg/mL | – |
| CCCCCCCCCCCCC(=O)O [Tridecanoic Acid] | < 40 mg/mL | – | – | – | > 40 mg/mL | – |
| CCCCCCCC/C=C/CCCCCCCC(=O)O [Elaidic Acid (18:1)-trans, Elaidic Acid] | < 40 mg/mL | – | – | – | > 40 mg/mL | – |
| CCCCCCCCCCCCCCCCCCCC(=O)O [Arachidic Acid (20:0), Arachidic Acid] | < 40 mg/mL | > 5 mg/mL | < 10 mg/mL | < 20 mg/mL | < 40 mg/mL | – |
| CCCCCCCCCCCC(=O)O [Lauric acid (12:0), Lauric acid] | – | – | – | – | – | solubility ([1]; 4 °C): < 40 mg/mL; solubility ([1]; 60 °C): > 40 mg/mL |
| CCCCCCCCCCC/C=C\CCCCC(=O)O [Petroselinic Acid (18:1), Petroselinic Acid] | – | – | – | – | – | solubility ([2]; 4 °C): > 40 mg/mL; solubility ([2]; 60 °C): > 40 mg/mL |
| CC/C=C\C/C=C\C/C=C\CCCCCCCC(=O)O [Linolenic Acid (18:3), Linolenic Acid] | > 40 mg/mL | – | – | – | > 40 mg/mL | – |
| CCCCCCCCCCCCCCC(=O)O [Pentadecanoic Acid] | < 40 mg/mL | – | – | – | > 40 mg/mL | – |
| CCCCCCCCCCCCCCCCCCCCC(=O)O [Heneicosanoic Acid] | < 40 mg/mL | < 5 mg/mL | < 10 mg/mL | < 20 mg/mL | < 40 mg/mL | – |
| CCCCCCCC/C=C\CCCCCCCC(=O)O [Oleic Acid (18:1)-cis, Oleic Acid] | > 40 mg/mL | – | – | – | > 40 mg/mL | solubility in squalene ([2]; 40 mg/ml): soluble in squalene; solubility in squalene ([2]; 4° C. overnight): remained soluble in squalene |
| CCCCCCCC/C=C\CCCCCCCCCCCC(=O)O [Erucic Acid (22:1), Erucic Acid] | – | – | – | – | – | solubility ([1]; 4 °C): > 40 mg/mL; solubility ([1]; 60 °C): > 40 mg/mL |
| CCCCCCCCCCC(=O)O [Undecanoic Acid] | > 40 mg/mL | – | – | – | > 40 mg/mL | – |
| CCCCCCCCCCCCCCCCCCC(=O)O [Nonadecanoic Acid] | < 40 mg/mL | < 5 mg/mL | < 10 mg/mL | < 20 mg/mL | < 40 mg/mL | – |
| CCCCCCCCCCCCCCCCCCCCCC(=O)O [Behenic Acid (22:0), Behenic Acid] | < 40 mg/mL | < 5 mg/mL | < 10 mg/mL | < 20 mg/mL | < 40 mg/mL | – |
| CCCCCCCCCCCCCCCCC(=O)O [Heptadecanoic Acid] | < 40 mg/mL | > 5 mg/mL | < 10 mg/mL | < 20 mg/mL | < 40 mg/mL | – |
| CCCCCCCCCCCCCCCCCCCCCCCC(=O)O [Lignoceric Acid (24:0), Lignoceric Acid] | < 40 mg/mL | < 5 mg/mL | < 10 mg/mL | < 20 mg/mL | < 40 mg/mL | – |
| CC/C=C\C/C=C\C/C=C\C/C=C\C/C=C\C/C=C\CCC(=O)O [Docosahexaenoic Acid (22:6), Docosahexaenoic Acid] | > 40 mg/mL | – | – | – | > 40 mg/mL | – |
| CCCCCC/C=C\CCCCCCCC(=O)O [Palmitoleic Acid (16:1), Palmitoleic Acid] | > 40 mg/mL | – | – | – | > 40 mg/mL | – |
| CCCCC/C=C\C/C=C\CCCCCCCC(=O)O [Linoleic Acid (18:2), Linoleic Acid] | – | – | – | – | – | solubility ([1]; 4 °C): > 40 mg/mL; solubility ([1]; 60 °C): > 40 mg/mL |
| CCCCCCCCCCCCCC(=O)O [Myristic Acid (14:0), Myristic Acid] | < 40 mg/mL | – | – | > 20 mg/mL | < 40 mg/mL | – |

From patent publication US9636410B2, “Cationic oil-in-water emulsions” (priority 2011, dated 2017)
